From patent US20240024216A1, “METHODS AND MATERIALS FOR TREATING HAIR LOSS” (The Penn State Research Foundation, priority 2021, published 2024)

Legend:
[1] = system: wound healing mouse skin sections; assay: Immunostaining and western blot of day 14 wound tissue markers; assay type: in vivo, mice
Procedure: Briefly, immunohistochemical and immunofluorescence analysis were performed on 5 μm thick wound healing mouse skin sections. The sections were deparaffinized and subjected to an antigen retrieval process by using sodium citrate buffer at 95° C. followed by immersed in 0.5% triton X-100. The section slides were blocked using 5% goat serum in 0.1% PBS-T for 1 hour. The following primary antibodies mouse monoclonal [LL002] anti-Cytokeratin14 (catalog No.—ab7800; IF-1:100), rat CD31 antibody (Catalog No.—553370; IF-1:100), mouse S100 antibody (Catalog No.—MA5-12969; IF-1:200), rabbit nerve growth factor receptor—p75-NTR antibody (Catalog No.—AB1554; IF and WB-1:500), Chicken neurofilament Heavy-NFH antibody (Catalog No.—NB300-217; IF-1:500), mouse alpha-smooth muscle actin —α-SMA antibody (Catalog No.—14-9760-82; IF-1:200 and WB-1:500), mouse TGF beta antibody (Catalog No.—27969; IF-1:100 and WB-1:500), rabbit Ki67 antibody (Catalog No.—9129S; IF-1:400), chicken keratin 15 antibody (Catalog No. —833901; IF-1:500), rabbit K17 antibody (gift from Pierre a. coulombe Lab; IF-1:1000), rabbit interleukin-1 beta antibody (Catalog No.—GTX74034; IF-1:100), rat F4/80 antibody (Catalog No.—MCA497GA; IF-1:100), mouse anti-SOX10 antibody (Catalog No.—sc-365692; IF-1:100 and WB-1:200), chicken anti-myelin basic protein antibody (Catalog No.—MBP; IF-1:1000), rabbit vimentin antibody (Catalog No.—10366-1-AP; IF-1:200), rabbit NGF antibody (Catalog No.—MA5-32067; IF-1:100 and WB-1:1000), mouse PGP 9.5 antibody (Catalog No.—PA5-29012; IF-1:200), chicken anti-P-zero myelin protein antibody (Catalog No.—PZO; IF-1:200), and rat substance P antibody (Catalog No. —NB100-65219; IF-1:100) were overnight incubated with 5% BSA in 0.1% PBS-T for IF stain and/or 5% skimmed milk in 0.1% TBS-T for Western blot at 4° C., then incubated with secondary antibodies for 1 hour at room temperature. The ProLong™ Gold Anti-fade Mountant with DAPI (Invitrogen, Caltlog No. P36935) used as nuclear counterstain. The immunofluorescence stained sections were imaged using ZEISS Axio Observer 7—Axiocam 506 mono—Apotome.2 microscope. The image analysis and quantification were formed either using ZEN 2.6 pro (Zeiss) imaging software or ImageJ-1.53e software (National Institutes of Health, USA).
For protein isolation the harvested skin tissue was flash frozen immediately. The frozen skin tissue ground to a fine power using a liquid nitrogen mortar. The harvested cells and/or tissue powder dissolved in RIPA buffer containing Halt™ Phosphatase (Thermo Scientific, Catlog No. 78420,) and Protease Inhibitor Cocktail (Roche complete tablets mini EASYpack, Catlog No. 04694124001). Tissue and cell debris removed by centrifuged at 14000 rpm for 30 minutes at 4° C. The supernatant was collected and the total protein concentration was determined by BCA protein assay (Thermo Scientific™ Pierce™, Catlog No. 23225). The proteins (20-30 μg) of the tissue protein samples were subjected to 12% sodium dodecyl sulfate polyacrylamide gel electrophoresis (Bio-Rad mini-PROTEAN TGX Gels, Catlog No. 4561044) and transferred to polyvinylidene fluoride (PVDF) membranes. After the membranes were blocked with 5% skimmed milk in 1×TBS-T for 1 hour, they were incubated with the appropriate primary antibodies (1:200-1:1000) at 4° C. overnight, then incubated with HRP-conjugated secondary antibodies (1:3000) for 1 hour. Immunoreactivity was then detected using chemiluminescent substrate (Thermo Scientific™ SuperSignal™ West Pico PLUS, Catlog No. 34577). The intensities of the bands were quantified using Gel-imaging software. The quantified band intensity were normalized using GAPDH and expressed either normalized intensity or ratios with respect to saline treated mice.

[2] = system: human foreskin primary keratinocytes; assay: Keratinocyte scratch assay with 4-AP, NGF and NGF-antibody; assay type: cell-based; settings: at 12 hours
Procedure: Keratinocytes (7×10^4 cells/well) with KC medium were seeded on collagen-I pre-coated 96-well ImageLock microplate for 6 hours. For the drug treatment cells were pretreated with 4-AP prior to coating for 16-18 hours. Next, the wound scratch was created using IncuCyte automated system. After scratches the cells washed with PBS and the respective cells medium was added with individual 1 mM of 4-AP and 200 ng/ml of NGF (MyBioSource, Inc., Catlog No. MBS7114974) in keratinocytes medium and combination of 1 mM of 4-AP & 200 ng/mL NGF with or without 10 μg/ml of NGF-antibody (ThermoFisher Scientific, Catlog No. MA5-32067). The plate was incubated in Incucyte automated imaging system, wound healing and cells migration imaged for every hour until 24 hour and analyzed for percent of closure as described above procedure.

[3] = day 14, vs saline treated controls

Compound: Nc1ccncc1 [4-AP, 4-aminopyridine]
- keratinocyte K10 expression in healed epidermis ([1]; day 14): did not cause any change
- levels of PGP 9.5 compared with uninjured tissue ([1]; day 14): not significantly different
- K17 expressing cells ([1]; day 14, vs control group): more abundant
- inflammatory cells (IL-1β) and macrophages (F4/80) in granulation tissue ([1]; day 14, vs control wounds): less of inflammatory cells and macrophages
- fold increase in Ki-67+ [1, 3]: 2 fold
- fold increase in NF-H axonal counts [1, 3]: 2.5 fold
- fold increase in S100+ cells [1, 3]: 3 fold
- increase in K15+ cells [1, 3]: two fold increase
- SOX10 expression ([1]; day 14, vs saline treated mice): Significantly increased
- fold increase in NGF expression ([1]; day 14, vs saline treated mice): 4 fold
- substance-P expression ([1]; day 14, vs saline treated mice): Significantly increased
- fold increase in K14+ keratinocytes ([1]; day 14, vs saline-treated mice): 2.5 fold
- double positive (S100+, p75-NTR+) SCs ([1]; day 14, vs saline, confirmed by WB for p75-NTR): increased numbers
- K14+ keratinocytes ([1]; day 14 wound bed): 13.72±1.403%
- Ki-67+ in hair follicle bulges and epidermis ([1]; day 14 wound tissue): 21.87±2.763 cells/mm^2
- NF-H axonal counts ([1]; day 14 wound tissue): 194±50.51 count/mm^2
- NGF expression ([1]; day 14 wound tissue): 2429872±375280 integrated density/mm^2
- S100+ cells around nerve bundles ([1]; day 14 wound tissue): 6.483±1.163 % positive cells
- CD31 intensity (blood vessels) ([1]; day 14 wound tissue, vs saline): statistically significant increases
- TGF-β protein expression ([1]; day 14 wound tissue, vs saline): significant increases
- vimentin-positive fibroblasts ([1]; day 14 wound tissue, vs saline): more vimentin-positive fibroblasts
- α-SMA-positive myofibroblasts ([1]; day 14 wound tissue, vs saline): more
- PGP 9.5+ nerve fibres ([1]; fourteen days post wound): 4096938±713297 integrated density/mm^2
- PGP 9.5+ nerve fibres relative to saline treated mice ([1]; fourteen days post wound): twice as abundant
- scratch closure ([2]; 56% in control cultures, 1 mM 4-AP, 200 ng/ml NGF): 75%
- scratch closure with NGF-neutralizing antibody ([2]; plus 10 μg/ml NGF-antibody): 67%
